ChEMBL document CHEMBL4400577, “Fragment-based Discovery of a Small-Molecule Protein Kinase C-iota Inhibitor Binding Post-kinase Domain Residues” (ACS Med Chem Lett, 2019)
pIC50: −log10 of the molar value. Converted amounts (≈) assume the structure as drawn.

What was measured:
Huh-7 = assay: Antiproliferative activity against human HuH7 cells assessed as cell growth inhibition measured after 72 hrs by CellTiter-Glo luminescent assay; format: functional; conditions: Huh-7, 72 h
[1] = target: T1, Protein kinase C iota type (Homo sapiens, UniProt P41743); assay: Inhibition of recombinant human full length N-terminal GST-fused PKCi (1 to 587 residues) expressed in baculovirus expression system using 5-FAM-RFARKGSLRQKNV as substrate measured after 60 mins by caliper microfluidic mobility shift assay
T1 sequence (P41743 whole entry): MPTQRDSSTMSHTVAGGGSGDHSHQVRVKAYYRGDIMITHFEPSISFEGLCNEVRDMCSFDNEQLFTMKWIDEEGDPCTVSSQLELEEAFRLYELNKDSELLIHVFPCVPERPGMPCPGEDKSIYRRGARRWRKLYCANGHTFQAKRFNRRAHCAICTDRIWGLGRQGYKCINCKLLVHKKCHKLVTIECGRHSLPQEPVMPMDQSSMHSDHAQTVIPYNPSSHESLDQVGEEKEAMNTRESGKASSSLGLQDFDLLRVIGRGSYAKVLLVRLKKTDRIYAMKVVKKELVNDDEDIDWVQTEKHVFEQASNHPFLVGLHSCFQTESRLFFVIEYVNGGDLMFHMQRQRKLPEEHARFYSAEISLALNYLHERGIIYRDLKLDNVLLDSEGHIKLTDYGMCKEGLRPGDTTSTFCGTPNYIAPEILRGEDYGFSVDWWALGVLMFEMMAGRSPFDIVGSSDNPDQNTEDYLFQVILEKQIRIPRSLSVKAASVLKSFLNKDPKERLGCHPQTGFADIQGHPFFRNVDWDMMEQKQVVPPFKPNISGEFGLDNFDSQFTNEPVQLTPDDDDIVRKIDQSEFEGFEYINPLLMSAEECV

[2] = Clearance in mouse liver microsomes; format: ADME, Microsome; conditions: read-out: CLH
[3] = Clearance in human liver microsomes; format: ADME, Microsome; conditions: read-out: CLH
[4] = Permeability across apical to basolateral side in human Caco2 cells; format: ADME, cell-based; conditions: Caco-2
[5] = Solubility of the compound at pH 7.4; format: physicochemical; conditions: buffer

Compound	pIC50 [1]	also measured
N[C@H](CNc1nc(-c2ccncc2)nc2sc3c(c12)CCCC3)Cc1ccccc1	–	GI50 (Huh-7): 3.1 µM
Nc1ncc(-c2ccccc2)cc1C(=O)Nc1ccncc1	4.49	–
NCc1cccc(-c2cnc(N)c(C(=O)Nc3ccncc3)c2)c1	6.15	–
Nc1nccnc1C(=O)Nc1ccc(O)cc1	4.12	–
Nc1nccnc1C(=O)Nc1ccncc1	4.64	–
Cc1cc(NC(=O)c2nccnc2N)cc(C)n1	3.58	–
NC(=O)c1cccc(-c2cnc(N)c(C(=O)Nc3ccncc3)c2)c1	< 3.42	–
Nc1nccnc1C(=O)Nc1ccnc2[nH]ccc12	< 3.42	–
Nc1nccnc1C(=O)NCc1ccncc1	< 3.42	–
Nc1nccnc1C(=O)Nc1ccncc1Br	< 3.42	–
Nc1ncc(-c2cccc(N3CCNCC3)c2)cc1C(=O)Nc1ccncc1	6.47	microsomal CLint [2]: 71 µL/min/mg; microsomal CLint [3]: 5.1 µL/min/mg; Papp A→B [4]: 0.28 ×10⁻⁶ cm/s; solubility [5]: 164 µg/mL (≈ 438 µM); GI50 (Huh-7): 11.3 µM
Nc1ncc(-c2cccc(N3CCNCC3)c2)nc1C(=O)Nc1ccncc1	6.57	–
CCc1cc(NC(=O)c2nccnc2N)ccn1	4.71	–
Nc1nccnc1C(=O)Nc1cccc(C2CC2)c1	4.37	–
Nc1ncccc1C(=O)Nc1ccncc1	4.66	–
CC(C)(C)c1cc(NC(=O)c2nccnc2N)ccn1	4.62	–
Nc1nccnc1C(=O)Nc1cccnc1	4.11	–
Nc1nccnc1C(=O)Nc1ccnc(Br)c1	< 3.42	–
Nc1ncc(Br)cc1C(=O)Nc1ccncc1	< 3.42	–
Nc1nccnc1C(=O)Nc1ccc2[nH]ccc2c1	4.47	–
